According to patent publication US20210308138A1, “TISSUE TRANSGLUTAMINASE MODULATORS FOR MEDICINAL USE” (Aarhus Universitet, priority 2018, published 2021):

Assays:
[1] = tested on: vascular smooth muscle cells (VSMCs) potassium currents; experiment: Whole-cell patch-clamp of K+ outward currents in isolated vascular smooth muscle cells; format: cell-based, rat; details: LDN-27219 3·10^−5 mol/L 12 min; VA-5 5·10^−5 mol/L one hour incubation
Method: For isolation of VSMCs, rat mesenteric arteries were dissected as previously described, opened longitudinally and stored in ice-cold dissociation solution containing (mmol/L): 119 NaCl, 4.7 KCl, 1.18 KH2PO4, 1.17 MgSO4, 24.9 NaHCO3, 0.027 EDTA, and 11 glucose, pH=7.4. Arteries were then equilibrated during 10 min in a dissociation solution with bovine albumin serum (BSA; 1 mg/mL) at 37° C. and then exposed to the same solution supplemented with papain (0.5 mg/mL; Worthington Biochemical Corp., Lakewood, N.J., USA) and dithiothreitol (DTT; 1 mg/mL) at 37° C. for 8 min. Arteries were then washed in ice-cold dissociation solution and moved to dissociation solution containing BSA (1 mg/mL) and collagenase (0.7 mg/mL type F and 0.4 mg/mL type H; Worthington Biochemical Corp.) at 37° C. for 3 min. […]
Membrane currents were recorded under the whole-cell configuration of the patch-clamp technique using an Axon Multiclamp 700A amplifier (Axon instruments, Molecular Devices, CA, USA). […] Current-voltage relations were determined using 600 ms voltage ramps from −100 to 160 mV and a holding potential (Vh) of −65 mV for SMCs.
Amplitudes of K^+-outward currents were measured in control conditions and 12 min after the addition of LDN-27219 (3·10^−5 mol/L) to the extracellular solution by a perfusion system.

[2] = tested on: small subcutaneous arteries obtained from human biopsies; experiment: Direct relaxation of human small subcutaneous arteries; details: LDN-27219 10^−8-10^−5 mol/L; hypertensive patients
Method: Human subcutaneous arteries were obtained from fat biopsies of the gluteal region from both male and female patients (30-70 years of age) with essential hypertension.
For ‘ex vivo’ studies, animals were randomly selected and euthanized by cervical dislocation and exanguination. The mesenteric arteries were immediately extracted and placed in 4° C. physiological saline solution (PSS, pH=7.4) of the following composition (mmol/L): 119 NaCl, 4.7 KCl, 1.18 KH2PO4, 1.17 MgSO4, 1.5 CaCl2), 24.9 NaHCO3, 0.026 EDTA and 5.5 glucose and small mesenteric arteries (internal diameters of 200-300 μm) were isolated. Human subcutaneous arteries (internal diameters of 300-400 μm) were dissected from the biopsies in the same conditions mentioned above for the mesenteric bed from rodents.
Small human subcutaneous arteries were obtained from fat biopsies from the gluteal region of hypertensive patients and prepared as described in Example 1. Concentration-response curves for LDN-27219 were constructed as described in Example 4 (FIG. 5B) and relaxation measurements were performed as described in Example 1.

[3] = tested on: small mesenteric arteries; experiment: Acetylcholine-induced relaxation of small mesenteric arteries from healthy and diabetic BKS mice (ex vivo); parameters: species or system male BKS(D)-Leprdb/JOrlRj mice
Method: In these experiments, healthy control mice of different ages and diabetic adult mice were used and the relaxation measurements were performed as described in Example 1.
Healthy male BKS(D)-Leprdb/JOrlRj heterozygous mice between 14-16 and 24-25 weeks of age, and diabetic homozygous mice between 16-17 weeks of age were tested respectively. The results of the isometric tension studies are shown in FIGS. 2, A), B) and C) respectively.

[4] = tested on: healthy male BKS(D)-Leprdb/JOrlRj heterozygous mice; experiment: Erectile function in vivo, peak intracavernosal pressure (PICP) over MAP; details: preliminary in vivo studies

In the case of NNC(=O)CSc1nc2scc(-c3ccccc3)c2c(=O)n1-c1ccccc1 [LDN-27219], the “potassium currents compared to control conditions” value [1] is reported as “potassium currents significantly bigger”, the “direct relaxation of human small subcutaneous arteries” value [2] is reported as “direct and dose-dependent relaxation” and the “endothelium-dependent relaxation induced by acetylcholine, compared to vehicle” value ([3]; LDN-27219 3·10^−6 mol/L, healthy and diabetic mice) is reported as “more potent endothelium-dependent relaxation”. The “dependence of the effect on age and diabetes” value ([3]; healthy mice 14-16 and 24-25 weeks, diabetic mice 16-17 weeks) was “more pronounced in older mice, and particularly pronounced in diabetic mice” and the “erectile function, peak intracavernosal pressure (PICP) over MAP” value [4] was “increased erectile function”.
